The text below walks through data of US20110008388A1, “PIGLET FEED RATIONS HAVING LOW LEVELS OF FERMENTABLE CARBOHYDRATES” (NOVUS INTERNATIONAL INC., priority 2007, published 2011).

Experiment [1] relates to nursery pigs. Nature of the experiment: Example 4: organic trace minerals and antibiotics with GEM blend in low lactose diets, nursery pig performance (BW, ADG, ADFI, GF). It is filed as in vivo. The note with it: Phase I, 0 to 7 days post weaning; regardless of lactose level; P<0.07. How it is done: Forty-two pens of pigs with about 20-25 pigs/pen blocked by weight were used. Pig body weights were collected initially (day 0) and at the end of each phase (days 7 and 21 post weaning). Feed consumption was measured from days 0-7 (Phase I) and from days 8-21 (Phase II) post weaning. Growth rate was calculated as average daily gain (ADG), daily feed intake was calculated as average daily feed intake (ADFI) and feed efficiency was calculated as the ratio of gain:feed (GF).
Phase I was from day 0 to 7 post weaning and Phase II was from day 8 to 21 post weaning. Composition and analysis of the experimental diets used in Phase I are described in Tables 18 and 19, respectively. Composition and analysis of the experimental diets used in Phase II are described in Tables 20 and 21, respectively. Diets in treatments 1 and 6 contained the high lactose levels of 20% and 10% in Phase I and II, respectively. All other treatments had diets containing the low lactose levels of 5% and 2.5% in Phase I and II, respectively. Antibiotic, GEM blend and OTM treatments during the two phases were as follows:
Phase I (0 to 7 Days): • 1. High lactose (20%)+enteric antibiotic. • 2. Low lactose (5%)+enteric antibiotic. • 3. Low lactose (5%)+enteric antibiotic+GEM blend. • 4. Low lactose (5%)+enteric antibiotic+OTM. • 5. Low lactose (5%)+enteric antibiotic+OTM+GEM blend. • 6. […]

In experiment [2] the test system is nursery pigs. Nature of the experiment: Example 1: lactose level and acidifying agent in nursery pig diets, growth performance (BW, ADG, ADFI, GF). It is filed as in vivo. Conditions: for feed intake: Phase I; for average daily feed intake (ADFI): Phase II. From the text: The following study was designed to determine whether a feed supplement comprising an acidifying agent could counteract the negative effects of lower levels of lactose in nursery pigs. A two-phase feeding program, with and without an acidifying agent comprising 2-hydroxy-4-methylthiobutanoic acid, fumaric acid, and benzoic acid (i.e., as provided by ACTIVATE® DA, Novus Intl), was implemented with industry norms for energy, digestible amino acids, vitamins, and minerals. The two-phase feeding program introduced ingredients in a progressive way to gently enhance maturation of the gastrointestinal system, while at the same time supplying special ingredients that should encourage maximal growth performance. The pigs were fed a Phase I diet from weaning to 10 days post weaning, and a Phase II diet from days 11 to 21 post weaning. The levels of lactose were varied in each diet phase and each level of lactose was examined with and without the acidifying agent.
A total of approximately 840 commercial breed nursery pigs (TR-4X C22 PIC lines, PIC Intl., Franklin, Ky.) were blocked by weight and sex, and then placed into a pen containing about 20-22 pigs per pen. There were a total of 42 pens that were used for 7 replications/treatment with approximately equal numbers of pens per sex/treatment. Treatments were randomly assigned to pens within a room prior to treatment initiation. Each pen was accounted as an experimental unit. The animals were cared for according to standard site practices, which include daily observations, temperature monitoring, feeder observations, and waterer observations.
Diets were balanced to meet 60 TID Met & Cys:Lys. The ideal amino acid ratio of Thr, Tryp, Ile, and Val to Lys was maintained at a minimum of 65%, 16%, 55%, and 65%, respectively, based on the TID ideal amino acid profile for swine. Diets that included the acidifying agent used MHA (DL-methionine hydroxyl analog) to balance for the methionine source, while diets without the acidifying agent used DL-Met as a methionine source. All diets were balanced to have equivalent methionine activity and properly mixed according to the diet formulations presented in Table 1 and Table 2 for Phase I, and Table 4 and Table 5 for Phase II. Calculated analyses of the diets are presented in Tables 3 and 6 for Phase I and II, respectively.
The treatment arrangements were a 3×2 factorial arrangement with three levels of lactose with and without the acidifying agent (i.e., ACTIVATE® DA at a 0.5%). Diets were formulated to provide 5%, 10%, or 20% lactose equivalent during Phase I (0 to 10 days post weaning) and 2.5%, 5%, or 10% lactose equivalent during Phase II (11 to 21 days post weaning). The lactose equivalent was provided by […]-80® (80% lactose content; International Ingredient Corporation, St. Louis, Mo.). Fishmeal and SDPP were held constant across the diets, and corn and CWG were allowed to float to provide similar energy levels. All diets were supplemented with the enteric antibiotic carbodox (i.e., MECADOX®, Phibro Animal Health, Ridgefield Park, N.J.).
The animals were observed daily including weekends and holidays. Any abnormal observations or mortalities were recorded by pen with weight and date. The body weights of the pigs were collected initially and at the end of each phase. The feed intake was collected for each phase of growth. Feed offered was measured by weighing each amount of feed used for each pen. Feed refused was measured by weighing the amount of feed left in the feeder and any remainder that had previously been recorded as feed offered.
Data were analyzed by analysis of variance procedures appropriate for a randomized block design using the General Linear Models procedure of SAS. Differences of least squares means for treatments from control pigs were determined using a least square comparison.

On to `COC(=O)N/N=C/c1c[n+]([O-])c2ccccc2[n+]1[O-]` [enteric antibiotic, carbodox], for which the feed intake in the experiment with nursery pigs [1] was determined as 179 g/day.

For the molecule `OC[C@H]1O[C@@H](O[C@H]2[C@H](O)[C@@H](O)C(O)O[C@@H]2CO)[C@H](O)[C@@H](O)[C@H]1O` (stereo partly shown) [lactose], the feed intake in the experiment on nursery pigs [2] (high level of lactose (20%)) was 146 g/day; with nursery pigs [2] (intermediate level of lactose (10%)), 150 g/day; with nursery pigs [2] (lowest level of lactose (5%)) it was 132 g/day. Besides, the “average daily feed intake (ADFI)” value with nursery pigs [2] (highest lactose level (10%)) turned out to be 408 g/day; in the experiment with nursery pigs [2] (intermediate lactose level (5%)), 400 g/day; with nursery pigs [2] (lowest lactose level ([…])), 384 g/day.
